# Measured values taken from ChEMBL document CHEMBL5505976, “Identification of the exosomal PD-L1 inhibitor to promote the PD-1 targeting therapy of gastric cancer” (Eur J Med Chem, 2024).
# Active and inactive are the calls of the source. The calls are words filed in the database; no cut-off is given here.
# Legend:
# [1] = target: Programmed cell death 1 ligand 1 (Homo sapiens, UniProt Q9NZQ7); test: Inhibition of exosomal PD-L1 (unknown origin) generation preincubated with compound for 24 hrs followed by strep-d2 acceptor bead addition and measured after 30 mins by HTRF assay
# Sequence of Programmed cell death 1 ligand 1 (Q9NZQ7 whole entry): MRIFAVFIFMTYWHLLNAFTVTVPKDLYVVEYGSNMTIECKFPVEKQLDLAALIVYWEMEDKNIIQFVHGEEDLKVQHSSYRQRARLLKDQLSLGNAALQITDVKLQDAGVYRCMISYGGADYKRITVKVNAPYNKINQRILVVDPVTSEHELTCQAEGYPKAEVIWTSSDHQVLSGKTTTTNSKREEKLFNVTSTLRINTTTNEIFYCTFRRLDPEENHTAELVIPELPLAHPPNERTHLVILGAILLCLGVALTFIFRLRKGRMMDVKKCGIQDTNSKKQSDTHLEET
# [2] = system: MFC; test: Antitumor activity against mouse MFC cells transfected with OVA implanted in female mouse assessed as decrease in accumulation of exosomal PD-L1 in tumor at 25 mg/kg, po; format: functional, organism-based
# [3] = Tmax in Sprague-Dawley rat at 25 mg/kg, po measured upto 24 hrs by LC-MS/MS analysis; format: ADME, organism-based; settings: in vivo
# [4] = system: MFC; test: Antiproliferative activity against mouse MFC cells transfected with OVA assessed as inhibition of cell proliferation measured for 48 hrs in presence of anti-mouse PD-1 antibody by MTS assay; format: functional, cell-based
# [5] = system: MGC-803; test: Inhibition of exosomal PD-L1 expression in human MGC-803 cells incubated for 24 hrs by Western blot analysis; format: functional, cell-based; settings: dose <= 400.0 nM
# [6] = Toxicity in female mouse xenografted with mouse MFC cells transfected with OVA assessed as kidney damage at 25 mg/kg, po by H and E staining based analysis; format: organism-based; settings: in vivo
# [7] = system: PDC-GC-919; test: Sensitization of human poor differentiated gastric cancer PDC-GC-919 cells to CD8-positive T cell assessed as increase in activated T cells measured for 48 hrs by MTS assay; format: functional, cell-based
# [8] = system: MFC; test: Antitumor activity against mouse MFC cells transfected with OVA implanted in female mouse assessed as increase in TNF-alpha level in tumor at 25 mg/kg, po in presence of PD-1 antibody by ELISA analysis; format: functional, organism-based
# [9] = Toxicity in female mouse xenografted with mouse MFC cells transfected with OVA assessed as spleen damage at 25 mg/kg, po by H and E staining based analysis; format: organism-based; settings: in vivo
# [10] = system: MFC; test: Antitumor activity against mouse MFC cells transfected with OVA implanted in female mouse assessed as increase in IL-2 level in tumor at 25 mg/kg, po in presence of PD-1 antibody by ELISA analysis; format: functional, organism-based
# [11] = system: MFC; test: Antitumor activity against mouse MFC cells transfected with OVA implanted in female mouse assessed as decrease in accumulation of exosomal PD-L1 in tumor at 25 mg/kg, po in presence of anti-PD-1 antibody; format: functional, organism-based
# [12] = Toxicity in female mouse xenografted with mouse MFC cells transfected with OVA assessed as lung damage at 25 mg/kg, po by H and E staining based analysis; format: organism-based; settings: in vivo
# [13] = Half life in Sprague-Dawley rat at 25 mg/kg, po measured upto 24 hrs by LC-MS/MS analysis; format: ADME, organism-based; settings: in vivo
# [14] = Cmax in Sprague-Dawley rat at 25 mg/kg, po measured upto 24 hrs by LC-MS/MS analysis; format: ADME, organism-based; settings: in vivo
# [15] = system: MGC-803; test: Sensitization of human MGC-803 cells to CD8-positive T cell assessed as increase in TNF-alpha level by ELISA analysis; format: functional, cell-based; settings: dose <= 400.0 nM
# [16] = system: MFC; test: Antitumor activity against mouse MFC cells implanted in female mouse assessed as reduction in tumor weight at 25 mg/kg, po in presence of anti-mouse PD-1; format: functional, organism-based
# [17] = system: MGC-803; test: Sensitization of human MGC-803 cells to CD8-positive T cell assessed as increase in IL-2 level by ELISA analysis; format: functional, cell-based; settings: dose <= 400.0 nM
# [18] = system: PDC-GC-239; test: Sensitization of human poor differentiated gastric cancer PDC-GC-239 cells to CD8-positive T cell assessed as increase in activated T cells measured for 48 hrs by MTS assay; format: functional, cell-based
# [19] = system: MGC-803; test: Sensitization of human MGC-803 cells to CD8-positive T cell assessed as increase in IFN-gamma level by ELISA analysis; format: functional, cell-based; settings: dose <= 400.0 nM
# [20] = system: MGC-803; test: Effect on exosomes generation in human MGC-803 cells at 400 nM measured for 24 hrs; format: functional, cell-based
# [21] = system: MFC; test: Antitumor activity against mouse MFC cells implanted in female mouse assessed as tumor growth inhibition at 25 mg/kg, po in presence of anti-mouse PD-1; settings: read-out: TGI
# [22] = Toxicity in female mouse xenografted with mouse MFC cells transfected with OVA assessed as liver damage at 25 mg/kg, po by H and E staining based analysis; format: organism-based; settings: in vivo
# [23] = system: MGC-803; test: Sensitization of human MGC-803 cells to CD8-positive T cell assessed as increase in activated T cells at 400 nM measured for 48 hrs in presence of recombinant PD-1 by MTS assay; format: functional, cell-based
# [24] = Clearance in Sprague-Dawley rat at 25 mg/kg, po measured upto 24 hrs by LC-MS/MS analysis; format: ADME, organism-based; settings: in vivo
# [25] = system: MFC; test: Antitumor activity against mouse MFC cells implanted in female mouse assessed as tumor growth inhibition at 25 mg/kg, po; settings: read-out: TGI
# [26] = system: MGC-803; test: Sensitization of human MGC-803 cells to CD8-positive T cell assessed as increase in activated T cells measured for 48 hrs in presence of Nivolumab by MTS assay; format: functional, cell-based
# [27] = Toxicity in female mouse assessed as effect on body weight at 25 mg/kg, po in presence of anti-mouse PD-1 antibody; format: organism-based; settings: in vivo
# [28] = Toxicity in female mouse xenografted with mouse MFC cells transfected with OVA assessed as heart damage at 25 mg/kg, po by H and E staining based analysis; format: organism-based; settings: in vivo
# [29] = system: T-cell; test: Cytotoxicity against mouse T cell at 100 uM measured for 24 hrs by MTS assay; format: toxicity, cell-based
# [30] = system: MFC; test: Antitumor activity against mouse MFC cells transfected with OVA implanted in female mouse assessed as increase in IFN-gamma level in tumor at 25 mg/kg, po in presence of PD-1 antibody by ELISA analysis; format: functional, organism-based
# [31] = AUC (0 to infinity) in Sprague-Dawley rat at 25 mg/kg, po measured upto 24 hrs by LC-MS/MS analysis; format: ADME, organism-based; settings: in vivo
smiles,measurement,setting,value
O=C(NCCN1CCOCC1)c1ccc(-c2ccc3cc4ccccc4cc3c2)cc1,IC50,[1],> 10000 nM
O=C(NCCN1CCOCC1)c1ccc(-c2cc3ccccc3s2)cc1,IC50,[1],648 nM
COc1ncc(-c2ccc(C(=O)NCCN3CCOCC3)cc2)cn1,IC50,[1],461 nM
CCOC(C)n1cc(-c2ccc(C(=O)NCCN3CCOCC3)cc2)cn1 (centres undefined),IC50,[1],753 nM
Cn1ccc2cc(-c3ccc(C(=O)NCCN4CCOCC4)cc3)ccc21,IC50,[1],217 nM
O=C(NCCN1CCOCC1)c1ccc(-c2cncnc2)cc1,IC50,[1],571 nM
COc1ccc(-c2ccc(C(=O)NCCN3CCOCC3)cc2)cc1F,IC50,[1],623 nM
O=C(NCCN1CCOCC1)c1ccc(Cl)cc1 [MOCLOBEMIDE],IC50,[1],3860 nM
CC(C)(C)OC(=O)Nc1ccc(-c2ccc(C(=O)NCCN3CCOCC3)cc2)cc1,IC50,[1],681 nM
O=C(NCCN1CCOCC1)c1ccc(-c2ccc(C(F)(F)F)cc2)cc1,IC50,[1],6820 nM
Cn1nccc1-c1ccc(C(=O)NCCN2CCOCC2)cc1,IC50,[1],286 nM
O=C(NCCN1CCOCC1)c1ccc(-c2ccccc2)cc1,IC50,[1],1540 nM
COc1ccc(-c2ccc(C(=O)NCCN3CCOCC3)cc2)cn1,IC50,[1],669 nM
O=C(NCCN1CCOCC1)c1ccc(-c2ccc3c(c2)OCCO3)cc1,IC50,[1],153 nM
N#Cc1ccc(-c2ccc(C(=O)NCCN3CCOCC3)cc2)cc1,IC50,[1],498 nM
O=C(NCCN1CCOCC1)c1ccc(-c2ccn(C3CCCCO3)n2)cc1 (centres undefined),IC50,[1],2590 nM
O=C(NCCN1CCOCC1)c1ccc(-c2ccc(F)cc2)cc1,IC50,[1],2240 nM
Nc1ccc(-c2ccc(C(=O)NCCN3CCOCC3)cc2)cc1,IC50,[1],336 nM
O=C(NCCN1CCOCC1)c1ccc(-c2cnc3[nH]ccc3c2)cc1,Activity,[2],Active
same,Tmax,[3],15 min
same,Activity,[4],Active
same,inhibition,[5],Dose-Dependent Effect
same,Activity,[6],Non-Toxic
same,Activity,[7],Active
same,Activity,[8],Active
same,Activity,[9],Non-Toxic
same,Activity,[10],Active
same,Activity,[11],Active
same,Activity,[12],Non-Toxic
same,half-life,[13],164 min
same,Cmax,[14],1210 ng/mL
same,Activity,[15],Dose-Dependent Effect
same,Activity,[16],Active
same,Activity,[17],Dose-Dependent Effect
same,Activity,[18],Active
same,Activity,[19],Dose-Dependent Effect
same,Activity,[20],Active
same,inhibition in vivo at 25 mg/kg,[21],69%
same,Activity,[22],Non-Toxic
same,Activity,[23],Active
same,CL,[24],35.24 L/h/kg
same,inhibition in vivo at 25 mg/kg,[25],32%
same,Activity,[26],Active
same,Activity,[27],Non-Toxic
same,Activity,[28],Non-Toxic
same,Activity,[29],Non-Toxic
same,Activity,[30],Active
same,AUC,[31],1668.51 ng·h/mL
same,IC50,[1],108 nM
